Tests used:
Id1 promoter = assay: Chromatin immunoprecipitation (ChIP) at the Id1 promoter in C2C12 cells; type: cell-based, mouse; conditions: co-stimulation with or stimulation with 8-Br-cGMP alone, 1 μmol/l, 4 hrs
Experimental: Chromatin immunoprecipitation (ChIP) was performed using (A) α-cGKI or α-Smad1 antibody or (B) α-Smad1 followed by α-cGKI antibody and vice versa or (C) α-Smad1 followed by α-TFII-I antibody and vice versa. Subsequent PCR identified a co-precipitated Id1 promoter sequence using specific primers. […] To exclude unspecific outcome control samples were run (for ChIP: no antibody, IgG, α-GFP antibody; for two-step ChIP: α-respective antibody followed by IgG; for unspecific amplification via PCR: no template). […] C2C12 cells were stimulated with BMP-2 for 4 h or left unstimulated. Endogenous chromatin immunoprecipitations (ChIP) of a specific Id1 promoter fragment was performed using α-Smad1 and α-cGKI antibodies (left). Id1 promoter was assayed for cGKI/TFII-I complex formation by one-step and two-step ChIP with the indicated antibodies. (D) Endogenous complexes with cGKI from C2C12 cells were analyzed with α-TFII-I, α-Smad1 and α-Smad4 antibodies and a lysate aliquot was monitored for protein expression. (E) Smad1/TFII-I association was analyzed in 293T cells expressing both proteins. IP was performed using a Smad1 directed antibody and the pellets were examined for co-IP of TFII-I. Lysate control was done by immunoblotting α-Smad1 and α-TFII-I.
Briefly, C2C12 cells were grown to a confluence of 80-90% (10 cm dish). […] PCR products were separated on 8% PA gels and analyzed under UV light.

[1] = test system: BMP response element (BRE from Id1 promoter) luciferase reporter; assay: BRE luciferase reporter gene assay in C2C12 cells; type: cell-based, mouse
Experimental: Luciferase activity was measured and error bars result from the mean of duplicate measurements. […] Expression of cGKIα/β was controlled by immunoblot using α-cGKI antibody. (C) As in (A and B) except that reporters were co-transfected with sh-cGKI, sh-cGKI mix and sh-control into C2C12 cells. BRE driven luciferase activity was measured and error bars represent deviation of the mean of duplicate measurements. […] Following cell extraction RNA was reverse transcribed into cDNA. The mRNA amount of Id1 was analyzed using Id1 specific primers including the control of applied cDNA by PCR using β-actin specific primers. The result is derived from a representative experiment. (F) As in (A and B), except that reporters were co-transfected with cGKIα and MYC-TFII-I into C2C12 cells. […] Lysates were pooled and immunoblotted for expression of cGKIα and TFII-I. (G) As in (E) except that mRNA amount of cGKI was analyzed using cGKI specific primers. The result is derived from an exemplary experiment. Results were quantified using ImageJ. cGKI mRNA expression was normalized relative to β-actin. […] Fold changes in BRE reporter activities were normalized to the non-treated empty vector control (mean±SD). […] The PDGF- or serum-induced proliferation was measured.
C2C12 cells were transfected with pBRE4-luc and pRL-TK and indicated constructs. […] Luciferase activity was measured according to manufacturer's instructions using the Dual-Luciferase® Reporter Assay System (Promega) and a FB12 or Mithras LB 940 luminometer (Berthold). Expression control was examined by immunoblotting.

VASP = assay: Endogenous VASP phosphorylation in C2C12 cells (immunoblot); type: cell-based, mouse; conditions: 1 μmol/l 8-Br-cGMP
Experimental: Endogenous VASP phosphorylation in C2C12 cells was monitored in response to 1 μmol/l and 100 μmol/l 8-Br-cGMP stimulation. Lysates were analyzed using immunoblot α-pVASP and α-β-actin.

cGKI = assay: Immunofluorescence microscopy of cGKI localization in C2C12 cells; type: cell-based, mouse; conditions: stimulation for 30 min
Experimental: (C) Immunofluorescence staining of cGKI in C2C12 cells after stimulation with BMP-2 or 8-Br-cGMP. DNA was stained using Hoechst dye.
Analysis was done with 63-fold magnification at a Leica DMR (Leica) confocal microscope. To examine the protein localization C2C12 cells or transfected 293T cells were starved for 3 hrs and either stimulated with 10 or 20 nmol/l BMP-2 and/or 1 mmol/18-Br-cGMP for 30 min or for 5 to 60 min or left untreated. Indirect immunofluorescence was performed as described in (Bengtsson and Wilson, 2006). Cells were analyzed using fluorescence microscopy (63-fold magnification, Axiovert 200M, Zeiss).

[2] = target: T1, GST-BRII-tail (methionine 501 to leucine 1038) (UniProt Q13873)
T1 sequence: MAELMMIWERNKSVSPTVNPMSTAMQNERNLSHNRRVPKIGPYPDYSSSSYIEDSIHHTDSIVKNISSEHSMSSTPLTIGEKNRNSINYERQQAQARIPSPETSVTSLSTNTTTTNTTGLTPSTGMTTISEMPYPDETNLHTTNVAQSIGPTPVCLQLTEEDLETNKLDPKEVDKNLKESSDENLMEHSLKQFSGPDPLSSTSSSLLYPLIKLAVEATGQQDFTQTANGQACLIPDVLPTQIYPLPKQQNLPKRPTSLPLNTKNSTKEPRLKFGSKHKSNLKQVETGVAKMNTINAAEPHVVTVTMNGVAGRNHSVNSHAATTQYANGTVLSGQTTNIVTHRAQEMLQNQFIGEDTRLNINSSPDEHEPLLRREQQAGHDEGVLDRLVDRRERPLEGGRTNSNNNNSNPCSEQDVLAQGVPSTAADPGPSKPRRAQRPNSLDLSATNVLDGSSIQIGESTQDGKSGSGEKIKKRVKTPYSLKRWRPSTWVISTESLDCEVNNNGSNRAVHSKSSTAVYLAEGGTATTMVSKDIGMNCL

Smad1/5/8 = assay: Smad phosphorylation assay in C2C12 cells; type: cell-based, mouse; conditions: without ligand, sh-cGKI versus sh-control
Source text: (§1) Whole cellular extracts were subjected to immunoblot using α-pSmad1/5/8 antibody. α-cGKIβ and α-β-actin immunoblotting was used as expression and loading control. To monitor the activity of cGKIβ the membrane was re-probed with α-pVASP antibody. Results were quantified using ImageJ and Smad1 C-terminal phosphorylation was normalized relative to β-actin. […] (C) Efficiency of cGKI knock down using a specific short hairpin-RNA (sh-cGKI) compared to a control (sh-control) was validated in C2C12 cells via immunoblot using α-cGKI antibody. Applied protein amount was controlled by α-β-tubulin antibody. (D) C2C12 cells were transfected with sh-cGKI and sh-control and subjected as in (A) to Smad phosphorylation assay. Smad1/5/8 phosphorylation and protein loading was monitored with α-pSmad1/5/8 and α-β-actin antibodies. Results were quantified using […]) and Smad1/5 C-terminal phosphorylation was normalized relative to β-actin.
(§2) Cell lysis and immunoblotting was performed as described in (Hartung et al., 2006).

Smad1 = assay: Smad phosphorylation assay in transfected 293T cells; type: cell-based; conditions: 293T cells co-expressing Smad1, non-stimulated and BMP-2/8-Br-cGMP co-stimulated
Source text: as §1, §2

HA-BRII-LF Q657ins16 = assay: BRE reporter assay with BRII PAH mutant in C2C12 cells; type: cell-based, mouse; conditions: C2C12 cells overexpressing cGKI and PAH mutant versus mutant alone
Experimental: (§3) Luciferase activity was measured and error bars result from the mean of duplicate measurements. […] Expression of cGKIα/β was controlled by immunoblot using α-cGKI antibody. (C) As in (A and B) except that reporters were co-transfected with sh-cGKI, sh-cGKI mix and sh-control into C2C12 cells. BRE driven luciferase activity was measured and error bars represent deviation of the mean of duplicate measurements. […] Luciferase activities are represented as mean of each value and standard deviations result from duplicate measurements. […] Following cell extraction RNA was reverse transcribed into cDNA. The mRNA amount of Id1 was analyzed using Id1 specific primers including the control of applied cDNA by PCR using β-actin specific primers. The result is derived from a representative experiment. (F) As in (A and B), except that reporters were co-transfected with cGKIα and MYC-TFII-I into C2C12 cells. BRE driven luciferase activity was measured, standard deviations result from duplicate measurements. […] Lysates were pooled and immunoblotted for expression of cGKIα and TFII-I. (G) As in (E) except that mRNA amount of cGKI was analyzed using cGKI specific primers. The result is derived from an exemplary experiment. Results were quantified using ImageJ. cGKI mRNA expression was normalized relative to β-actin. […] The PDGF- or serum-induced proliferation was measured. […]

[3] = test system: human aortic smooth muscle cells; assay: PDGF- or serum-induced proliferation of human aortic smooth muscle cells expressing BMPRII mutant; type: cell-based; conditions: cells transfected with MYC-BMPRII-Q567ins16 with cGKI coexpression, 24 h
Experimental: as §3

Q: For Nc1nc2c(nc(Br)n2[C@@H]2O[C@@H]3COP(=O)(O)O[C@H]3[C@H]2O)c(=O)[nH]1 [8-Br-cGMP], which “effect on binding of Smad1 and cGKI to the Id1 promoter” value (Id1 promoter) is on record?
A: did not affect

Q: And the “BRE reporter gene activity upon stimulation” value ([1]; C2C12 cells, endogenous cGKI, 1 nmol/l BMP-2 and/or 1 μmol/l or 100 μmol/l 8-Br-cGMP, 24 hrs)?
A: did not affect

Q: And the “cGKI-mediated VASP phosphorylation” value (VASP)?
A: weak cGKI-mediated VASP phosphorylation

Q: And the “nuclear translocation of endogenous cGKI” value (cGKI)?
A: redistribution of cGKI to the nucleus

Q: For recombinant cGKIα (Promega), which “in vitro phosphorylation (γ-32P-ATP, autoradiography), cGKIα activated with 8-Br-cGMP” value [2] is on record?
A: BRII-tail was phoshorylated by activated cGKlα

Q: What does the source list for “sh-cGKI: shRNA construct specific for mouse cGKI, SEQ ID NO 3 (CACCGGGACGATGTTTCTAACAAACGAATTTGTTAGAAACATCGTCC; listed as Homo sapiens)”?
A: BRE reporter gene response upon ligand stimulation compared to control cells ([1]; C2C12 cells transfected with sh-cGKI versus sh-control, BMP-2 stimulated): less than 50%; endogenous Smad1/5/8 phosphorylation (Smad1/5/8): reduced

B1: cGKIβ: β isoform of cGMP-dependent protein kinase I, SEQ ID NO 2 (protein, listed as Homo sapiens)
chain: MGTLRDLQYALQEKIEELRQRDALIDELELELDQKDELIQKLQNELDKYRSVIRPATQQAQKQSASTLQGEPRTKRQAISAEPTAFDIQDLSHVTLPFYPKSPQSKDLIKEAILDNDFMKNLELSQIQEIVDCMYPVEYGKDSCIIKEGDVGSLVYVMEDGKVEVTKEGVKLCTMGPGKVFGELAILYNCTRTATVKTLVNVKLWAIDRQCFQTIMMRTGLIKHTEYMEFLKSVPTFQSLPEEILSKLADVLEETHYENGEYIIRQGARGDTFFIISKGTVNVTREDSPSEDPVFLRTLGKGDWFGEKALQGEDVRTANVIAAEAVTCLVIDRDSFKHLIGGLDDVSNKAYEDAEAKAKYEAEAAFFANLKLSDFNIIDTLGVGGFGRVELVQLKSEESKTFAMKILKKRHIVDTRQQEHIRSEKQIMQGAHSDFIVRLYRTFKDSKYLYMLMEACLGGELWTILRDRGSFEDSTTRFYTACVVEAFAYLHSKGIIYRDLKPENLILDHRGYAKLVDFGFAKKIGFGKKTWTFCGTPEYVAPEIILNKGHDISADYWSLGILMYELLTGSPPFSGPDPMKTYNIILRGIDMIEFPKKIAKNAANLIKKLCRDNPSERLGNLKNGVKDIQKHKWFEGFNWEGLRKGTLTPPIIPSVASPTDTSNFDSFPEDNDEPPPDDNSGWDIDF
Q: B1 was tested. Which “C-terminal Smad1 phosphorylation” value (Smad1) did it give?
A: resulted in phosphorylation of Smad1

B2: cGKI: cGMP-dependent protein kinase I (α or β isoform, SEQ ID NO 1 or 2), overexpressed in cells (protein, UniProt Q13976 2-671, looked up)
cGMP-dependent protein kinase …: SELEEDFAKILMLKEERIKELEKRLSEKEEEIQELKRKLHKCQSVLPVPSTHIGPRTTRAQGISAEPQTYRSFHDLRQAFRKFTKSERSKDLIKEAILDNDFMKNLELSQIQEIVDCMYPVEYGKDSCIIKEGDVGSLVYVMEDGKVEVTKEGVKLCTMGPGKVFGELAILYNCTRTATVKTLVNVKLWAIDRQCFQTIMMRTGLIKHTEYMEFLKSVPTFQSLPEEILSKLADVLEETHYENGEYIIRQGARGDTFFIISKGTVNVTREDSPSEDPVFLRTLGKGDWFGEKALQGEDVRTANVIAAEAVTCLVIDRDSFKHLIGGLDDVSNKAYEDAEAKAKYEAEAAFFANLKLSDFNIIDTLGVGGFGRVELVQLKSEESKTFAMKILKKRHIVDTRQQEHIRSEKQIMQGAHSDFIVRLYRTFKDSKYLYMLMEACLGGELWTILRDRGSFEDSTTRFYTACVVEAFAYLHSKGIIYRDLKPENLILDHRGYAKLVDFGFAKKIGFGKKTWTFCGTPEYVAPEIILNKGHDISADYWSLGILMYELLTGSPPFSGPDPMKTYNIILRGIDMIEFPKKIAKNAANLIKKLCRDNPSERLGNLKNGVKDIQKHKWFEGFNWEGLRKGTLTPPIIPSVASPTDTSNFDSFPEDNDEPPPDDNSGWDIDF
Q: Which “BRE reporter activity upon overexpression” value ([1]; transfected C2C12 cells, in the absence of BMP-2) does the source give for B2 here?
A: increased

Q: What about the “BRE activity in cells expressing the PAH mutant BRII” value (HA-BRII-LF Q657ins16) of the same molecule?
A: rescues defective BMP signaling

Q: What about the “PDGF- or serum-induced proliferation” value [3] of the same molecule?
A: downregulated

Source: patent US20110045568A1, “METHOD FOR RESTORING BMP-RECEPTOR SIGNALING IN A CELL” (FREIE UNIVERSITÄT BERLIN, priority 2008, published 2011)
